The values that follow come from patent US20240208912A1 (Mirati Therapeutics, Inc., priority 2021, published 2024).

Assay [1] concerns the target T1, PRMT5/MEP50 complex (Homo sapiens, UniProt O14744).
T1 construct: purchased Reaction Biology Corporation
The assay is described as follows: PRMT5:MEP50 FlashPlate Assay (histone H4 peptide substrate, plus and minus MTA). The format is biochemical. On the procedure: The PRMT5 inhibitory activity of compounds of the present invention was determined using either a PRMT5:MEP50 FlashPlate Assay (Reaction Biology Corporation) or a PRMT5:MEP50 HotSpot Assay (Reaction Biology Corporation).

The test system of assay [2] is HCT116 homozygous MTAP knockout cells. The assay is described as follows: Proliferation assay (CellTiter-Glo, 10 days) in HCT116 homozygous MTAP knockout cells. The format is cell-based. The settings on record: CellTiter-Glo after 10 days of treatment, read-out: Proliferation IC50 (nM) HCT116 MTAP_KO. Put shortly:
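CellTiter-Glo viability read on day 11 gives a 10-day IC50. Dosing began one day after seeding, with a 1:10 split into fresh drug-containing medium on day 6. Cells are HCT116 lacking both MTAP alleles via CRISPR/Cas9, run alongside the parental line.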

In assay [3] the test system is PRMT5-dependent Symmetric Di-methyl Arginine signal in HCT116 homozygous MTAP Knockout cells. The experiment in a line: SYM11 In-Cell Western in HCT116 homozygous MTAP knockout cells. The format is cell-based. The settings on record: 4 days of treatment, SYM11/DRAQ5 ratio as percent of DMSO control, read-out: In-cell-Western (SYM11) IC50 (nM) HCT116 MTAP_KO. Summed up:
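HCT116 cells with CRISPR homozygous MTAP knockout, alongside parental cells, treated four days with PRMT5 inhibitor dose response at 37° C., 5% CO2 in McCoy's 5A with 10% FBS.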

Assay [4] concerns HCT116 parental cells. The assay is described as follows: Proliferation assay (CellTiter-Glo, 10 days) in HCT116 parental cells. It is filed as cell-based. The settings on record: CellTiter-Glo after 10 days of treatment. On the procedure:
(§1) Control samples were analyzed in parallel.
Briefly, on Day 0, 250 HCT116 parental or HCT116 homozygous MTAP knockout cell were seeded in 96 well plates in McCoy's 5A supplemented with […] fetal bovine serum and pen/strep and the cells were incubated overnight at 37° C. plus 5% CO2.
The following day, cells were treated with DMSO vehicle control or a dose response of PRMT5 inhibitors and incubated at 37 C plus 5% CO2 for five days. On Day 6, the cells were trypsinized and split 1:10 into new 96-well plates with fresh medium containing the same concentration of PRMT5 inhibitor and incubated for an additional 5 days at 37° C. plus 5% CO^2.
On Day 11, the viability of the cells was measured using a CTG assay kit (CellTiter-Glo; Promega cat.no G7573) in accordance with the manufacturer's instructions. The IC50 values for each compound after 10 days of treatment were calculated using GraphPad PRISM software.

In assay [5] the target is T1, PRMT5/MEP50 complex. The experiment in a line: PRMT5:MEP50 HotSpot Assay (full-length histone H2A substrate, plus and minus MTA). The format is biochemical. Summed up: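 Tritiated product on full-length recombinant H2A was counted by scintillation after the stopped reaction was captured on filter paper. Substrate is histone H2A; conditions include plus and minus MTA.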

The subject of assay [6] is PRMT5-dependent Symmetric Di-methyl Arginine signal in HCT116 parental cells. The assay is described as follows: SYM11 In-Cell Western in HCT116 parental cells. The format is cell-based. The conditions noted are these: HCT116 parental cells, 4 days of treatment, SYM11/DRAQ5 ratio as percent of DMSO control, read-out: In-cell-Western (SYM11) IC50 (nM) HCT216 parental. On the procedure:
as §1
Briefly, on Day 0, 2,000 HCT116 parental or HCT116 homozygous MTAP knockout cells were seeded in 96 well plates in McCoy's 5A supplemented with 10% fetal bovine serum and pen/strep and the cells were incubated overnight at 37° C. plus 5% CO2. The following day, cells were treated with DMSO vehicle control or a dose response of PRMT5 inhibitors, and incubated at 37° C. plus 5% CO^2 for four days.
After 4 days of treatment, the cells were fixed by adding 50 μl of 4% paraformaldehyde solution to each well and the cells were incubated for 20 min at room temperature. The paraformaldehyde solution was removed, 150 μl of ice-cold methanol was added and the plate was placed −20° C. for 10 minutes. The methanol was removed, 150 μl of Odyssey Blocking buffer+0.05% Tween20 was added and the plate was incubated at room temperature with shaking for one hour.
The primary SYM11 antibody solution was removed by aspiration and the wells were washed three consecutive times with phosphate buffered saline containing 0.1% Tween-20 (PBST).
The secondary antibody solution was removed by aspiration and the wells were washed three consecutive times with PBST.
The SYM11 signal and the DRAQ5 signal were quantified using a Li-Cor Odyssey machine reading at […], respectively. The SYM11/DRAQ5 ratio was used to calculate the inhibition of Symmetric Dimethyl Arginine as percent of DMSO control.

Where [7] appears, read: in the absence of MTA, read-out: IC50.
Where [8] appears, read: read-out: IC50 + 2 μM MTA, in the presence of 2 μM MTA.
Where [9] appears, read: IC50 + 2 μM MTA, in the presence of 2 μM MTA.

Like-named read-outs stand apart in the source and are kept apart here.

T1 sequence (O14744 2-637 limits assumed): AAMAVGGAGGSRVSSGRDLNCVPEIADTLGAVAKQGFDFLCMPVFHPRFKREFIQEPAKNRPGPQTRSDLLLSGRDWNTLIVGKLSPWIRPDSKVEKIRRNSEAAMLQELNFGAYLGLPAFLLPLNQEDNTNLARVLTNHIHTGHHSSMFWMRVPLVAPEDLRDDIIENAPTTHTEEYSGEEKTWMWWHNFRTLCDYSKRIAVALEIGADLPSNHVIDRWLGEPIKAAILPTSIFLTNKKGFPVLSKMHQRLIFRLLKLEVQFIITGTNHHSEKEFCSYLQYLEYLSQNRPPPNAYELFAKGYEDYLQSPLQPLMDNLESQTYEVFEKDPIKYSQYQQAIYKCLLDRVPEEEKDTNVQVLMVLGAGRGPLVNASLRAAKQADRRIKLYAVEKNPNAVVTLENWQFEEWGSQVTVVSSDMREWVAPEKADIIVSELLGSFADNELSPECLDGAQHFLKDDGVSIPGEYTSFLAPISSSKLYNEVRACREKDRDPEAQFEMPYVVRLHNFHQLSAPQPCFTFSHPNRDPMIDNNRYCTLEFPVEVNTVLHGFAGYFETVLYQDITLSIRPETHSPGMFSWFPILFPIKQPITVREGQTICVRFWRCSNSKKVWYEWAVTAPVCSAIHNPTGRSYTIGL
T1 sequence (Q9BQA1 2-342 partner limits assumed): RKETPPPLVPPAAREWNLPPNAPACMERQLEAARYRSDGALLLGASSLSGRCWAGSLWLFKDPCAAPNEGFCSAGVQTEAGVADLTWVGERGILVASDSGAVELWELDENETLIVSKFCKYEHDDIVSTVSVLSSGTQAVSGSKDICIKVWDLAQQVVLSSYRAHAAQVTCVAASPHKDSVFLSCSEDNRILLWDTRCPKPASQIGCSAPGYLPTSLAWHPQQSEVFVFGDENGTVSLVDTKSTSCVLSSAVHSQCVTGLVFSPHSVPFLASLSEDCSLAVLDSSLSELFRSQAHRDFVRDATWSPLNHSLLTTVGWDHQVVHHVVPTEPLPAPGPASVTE

In the case of `Cc1cccc(-c2c(-c3ccc4c(=O)[nH]nc(CN)c4c3)cnn2C)c1` [Example 4-94, 4-(aminomethyl)-6-(1-methyl-5-(m-tolyl)-1H-pyrazol-4-yl)phthalazin-1(2H)-one], the IC50 in assay [1] (setting [7]) came to 0.033 µM.

On to `Cc1nc2cncc(-c3ccc4c(=O)[nH]nc(CN)c4c3)c2o1` [Example 4-110, 4-(aminomethyl)-6-(2-methyloxazolo[4,5-c]pyridin-7-yl)phthalazin-1(2H)-one], for which, in assay [1] (setting [7]), the IC50 is over 100 µM.

Turning to `CCc1cncc(-c2ccc3c(=O)[nH]nc(CN)c3c2)c1` [Example 3-13, 4-(aminomethyl)-6-(5-ethylpyridin-3-yl)-phthalazin-1(2H)-one], in assay [1] (setting [7]), the IC50 was determined as 0.42 µM.

With “4-(aminomethyl)-6-(5-ethoxypyrazolo[1,5-a]pyridin-3-yl)phthalazin-1(2H)-one [Example 4-158]”, the IC50 is 0.113 µM in assay [1] (setting [7]); 0.0028 µM in assay [1] (setting [8]); 2200 nM in assay [2]; over 10000 nM in assay [3]; 1740 nM in assay [4]; 1.46 µM in assay [5] (setting [8]). For the same compound, the IC50 in assay [6] is over 10000 nM.

For the compound `COCc1nc2sc(-c3c(-c4ccc5c(=O)[nH]nc(CN)c5c4)cnn3C)c(C#N)c2cc1Cl` [Example 4-272, 2-(4-(4-(aminomethyl)-1-oxo-1,2-dihydrophthalazin-6-yl)-1-methyl-1H-pyrazol-5-yl)-5-chloro-6-(methoxymethyl)thieno[2,3-b]pyridine-3-carbonitrile], the IC50 was 245 nM in assay [2] (Homo sapiens, HCT-116, 240 h); 55 nM in assay [3] (Homo sapiens, HCT-116, 96 h); over 10000 nM in assay [4] (Homo sapiens, HCT-116, 240 h); 0.26 µM in assay [5] (setting [9]); over 1000 nM in assay [6] (Homo sapiens, HCT-116, 96 h).

For the compound `Cn1ncc(-c2ccc3c(=O)[nH]nc(CN)c3c2)c1-c1c(F)ccc(OC2CC2)c1C#N` (single isomer, unassigned) [Example 16-22, (M)-2-[4-[4-(aminomethyl)-1-oxo-2H-phthalazin-6-yl]-2-methyl-pyrazol-3-yl]-6-(cyclopropoxy)-3-fluoro-benzonitrile], the IC50 in assay [2] amounted to 17 nM; in assay [3], 4 nM; in assay [4], 3620 nM; in assay [5] (setting [9]) it was 0.107 µM; in assay [6], 1060 nM.

In the case of `Cn1ncc(-c2ccc3c(=O)[nH]nc(CN)c3c2)c1-c1c(F)cc2ccccc2c1C#N` (single isomer, unassigned) [Example 16-2], the IC50 was 224 nM in assay [2] (Homo sapiens, HCT-116, 240 h); 73 nM in assay [3]; 5920 nM in assay [4]; 0.111 µM in assay [5] (setting [9]); over 1000 nM in assay [6].

As to `COc1cccc(-c2c(-c3ccc4c(=O)[nH]nc(CN)c4c3)cnn2C)c1` [Example 4-93, 4-(aminomethyl)-6-(5-(3-methoxyphenyl)-1-methyl-1H-pyrazol-4-yl)phthalazin-1(2H)-one], the IC50 in assay [1] (setting [7]) worked out at 0.035 µM.

On to `CC(=O)Nc1cc(-c2cnn(C)c2-c2sc3ccccc3c2C#N)cc2c(CN)n[nH]c(=O)c12` [Example 15-8, N-(1-(aminomethyl)-7-(5-(3-cyano-benzo[b]thiophen-2-yl)-1-methyl-1H-pyrazol-4-yl)-4-oxo-3,4-dihydrophthal-azin-5-yl)acetamide], for which the IC50 in assay [2] (Homo sapiens, HCT-116, 240 h) came out at 96 nM; in assay [3] (Homo sapiens, HCT-116, 96 h) it was 96 nM; in assay [4] (Homo sapiens, HCT-116, 240 h), 155 nM; in assay [5] (setting [9]), 0.109 µM; in assay [6] (Homo sapiens, HCT-116, 96 h), 720 nM.
